Measured values taken from patent publication US9238797B2, “Method for production of pluripotent stem cell” (TAKARA BIO INC., priority 2008, dated 2016).

Legend:
[1] = system: human adult skin fibroblast; experiment: iPS cell colony induction, cell cycle arresting agent-2, Purvalanol A with or without Y27632 (Example 27); format: cell-based; details: 26th day of culture, N=2
Description: Regarding Purvalanol A being a Cell cycle arresting agent, for which the effect of promoting induction of a pluripotent stem cell was confirmed in Example 3, extension of the substance treatment term thereof and a combination use thereof with Y-27632 [(R) (+)-trans-4-(1-aminoethyl)-N-(4-pyridyl)cyclohexanecarboxyamide dihydrochloride] which is one of substances suppressing cell death were studied.
According to the same manner as that of Example 3-(2), gene transfer was carried out (day 0 of culturing), provided that the virus solution was added to each well by each 2 mL, by diluting 10-fold a solution obtained by mixing three kinds of vectors at an equal amount, with 10F-DMEM.
(§1) On the sixth day of culture, according to the same manner as that of Example 5-(4), the gene-introduced cell was seeded on a feeder cell, and culturing was continued.
After completion of a substance treatment term, the medium was exchanged with a medium for ES cells, and culturing was continued until the 26th day of culture. […] Regarding the condition under which substance treatment for 4 days to 6 days was carried out, the medium was exchanged at two days interval also during a substance treatment term, and the substance was added at the same concentration every time.
(§2) In addition, the number in the Table indicates an average value of N=2.

[2] = system: human adult skin fibroblast; experiment: iPS cell colony induction, cell cycle arresting agent treatment (Example 3); format: cell-based; details: 2 days, 22nd day of culture
Description: According to the same manner as that of Example 1-(2), gene transfer was carried out (day 0 of culturing), provided that a plate was washed with PBS containing 1.5% human serum albumin, and centrifugation after cell seeding was not carried out. In addition, gene transfer was carried out in a combination of a retrovirus vector DON5-am-OCT4-IR-SOX2, DON5-am-LIN28-IR-NANOG, or DON5-am-KLF4.
On the seventh day of culture, according to the same manner as that of Example 1-(4), the gene-introduced cell was seeded on a feeder cell, and culturing was continued.
In addition, the agent was not added to a control. After culturing for 2 days, the medium was exchanged with a medium for ES cells, and culturing was continued until the 22nd day of culture.

[3] = system: human adult skin fibroblast; experiment: iPS cell colony induction, DHCP and GM (Example 29); format: cell-based; details: 10 μM, 2 days; 26th day of culture; N=2
Description: In induction culturing of a pluripotent stem cell, substance treatment with a compound DHCP produced by heating a uronic acid compound derived from an animal and a plant (International Publication No. 98/13328 pamphlet), and GM in which glutathione is added to DHCP (International Publication No. 98/39291 pamphlet) was carried out, and influence on an induction efficiency was studied.
According to the same manner as that of Example 4-(2), gene transfer was carried out (day 0 of culturing), provided that each 1 mL of the virus solution was added to each well, by diluting 10-fold a solution obtained by three kinds of vectors at an equal amount, with 10F-DMEM.
as §1
(§3) In addition, in a control, the substance was not added. After culturing for 2 days, the medium was exchanged with a medium for ES cells, and culturing was continued to the 28th day of culture.
as §2

[4] = system: human adult skin fibroblast; experiment: iPS cell colony induction, methylation inhibitor treatment (Example 1); details: 5-aza-2′-deoxycytidine 1 μM for 2 days in medium for ES cells, 28th day of culture
Description: Each 700 μL of the virus solution prepared in Preparation Example 2 was added to each well of the Retronectin-immobilized culture plate prepared in (1) in a combination of Table 3, respectively, and this was centrifuged at 32° C. and 2,000×g for 2 hours.
Thereafter, the supernatant was removed from each well, washed with PBS once, and each 2 mL of human adult skin fibroblast (manufactured by Lonza) suspended in 10F-DMEM to 5×10^4 cells/mL was seeded on each well. After centrifugation at 32° C. and 500×g for 10 minutes, culturing was initiated in a CO2 incubator at 37° C. (0 day of culture).
Gene transfer for the second time was carried out on the first day of culture. Each 700 μL of virus solutions prepared by Preparation Example 2 were mixed in a combination of Table 3, and polybrene (hexadimethrine.bromide; manufactured by Aldrich) was added to a final concentration of 8 μg/mL to prepare a retrovirus vector mixed solution. The supernatant was removed from a culture plate which had been cultured in (2), and this retrovirus vector mixed solution was added. After culturing in a CO2 incubator at 37° C. for 4 hours, 2 mL of 10F-DMEM was added. After further culturing for 2 days, the supernatant was removed, 2 mL of 10F-DMEM was added, and culturing was continued.
The gene-introduced cell on the seventh day of culture made in (3) was recovered, and suspended in 10F-DMEM to 5×10^4 cells/mL. 10 mL of this suspension was seeded on the feeder cell, and culturing was continued.
On the eighth day of culture (after culturing for 1 day from seeding on the feeder cell), the supernatant was removed, and 10 mL of DMEM not containing serum (0F-DMEM: obtained by removing bovine fetal serum from 10F-DMEM) was added under Protein starvation treatment conditions. […]
The number of a pluripotent stem cell (iPS cell) under each condition of protein starvation of treatment or methylation inhibitor treatment under each of conditions A, B and C was counted on the 28th day of culture.

[5] = system: human adult skin fibroblast; experiment: iPS cell colony induction, cell cycle arresting agent-3, NU6140 (Example 28); format: cell-based; details: 2 days, 28th day of culture, N=2
Description: In induction culturing of a pluripotent stem cell, substance treatment with […] (manufactured by ALEXIS BIOCHEMICALS) which is one of Cell cycle arresting agents was carried out, and influence on an induction efficiency was studied.
According to the same manner as that of Example 1-(1), immobilization of Retronectin on a culture plate was carried out, provided that a non-treatment 12-well culture plate (manufactured by Becton, Dickinson and Company) was used, and each 1 mL of a Retronectin solution was added to each well.
According to the same manner as that of Example 4-(2), gene transfer was carried out (day 0 of culturing), provided that each 1 mL of the virus solution was added to each well, by diluting 100-fold a solution obtained by three kinds of vectors at an equal amount, with 10F-DMEM.
as §1, §3, §2

In the case of `CC(C)[C@H](CO)Nc1nc(Nc2cccc(Cl)c2)c2ncn(C(C)C)c2n1` [Purvalanol A], the “Number of iPS cell colonies” value ([1]; Condition A: 2 μM Purvalanol A, 2 days) is reported as 26.0, the “Number of iPS cell colonies” value ([1]; Condition B: 2 μM Purvalanol A, 4 days) is reported as 25.5 and the “Number of iPS cell colonies” value ([1]; Condition C: 2 μM Purvalanol A, 6 days) is reported as 18.5. For the same compound, the “Number of iPS cell colonies” value ([2]; 0.1 μM) was 28, the “Number of iPS cell colonies” value ([2]; 0.5 μM) was 19 and the “Number of iPS cell colonies” value ([2]; 2 μM) was 19.
`O=C1C=CC(O)C1O` (centres unmarked) [DHCP, 4,5-dihydroxy-2-cyclopentene-1-one] was tested, and the “Number of iPS cell colonies” value [3] was 23.5.
`NC(=O)NO` [Hydroxyurea, hydroxyurea] was tested, and the “Number of iPS cell colonies” value ([2]; 10 μM) was 26 and the “Number of iPS cell colonies” value ([2]; 100 μM) was 13.
With `Nc1ncn([C@H]2C[C@H](O)[C@@H](CO)O2)c(=O)n1` [Methylation inhibitor, 5-aza-2′-deoxycytidine] the “Number of iPS cell colonies” value ([4]; retrovirus combination Condition A) was 11, the “Number of iPS cell colonies” value ([4]; retrovirus combination Condition B) was 25 and the “Number of iPS cell colonies” value ([4]; retrovirus combination Condition C) was 8.
For `CCN(CC)C(=O)c1ccc(Nc2nc(OCC3CCCCC3)c3[nH]cnc3n2)cc1` [NU6140], the “Number of iPS cell colonies” value ([5]; 0.1 μM) was 22.5 and the “Number of iPS cell colonies” value ([5]; 1 μM) was 28.0.
